Data taken from the supplement of paper PMC13380429.
± gives the standard deviation of the averaged measurements.

How the values were obtained:
Details in all cases: 72 h
Calu-3 [1] = experiment: relative viability EC50 (midpoint between 100% and the lowest measured viability); higher = less toxic
Vero E6 [2] = experiment: as above
HepG2 [3] = experiment: as above
U2OS [4] = experiment: as above
Caco-2 [5] = experiment: as above
Calu-3 [6] = experiment: drug sensitivity score (DSS) for viability; higher = more toxic; extreme values may be limits of the assay
Vero E6 [7] = experiment: as above
HepG2 [8] = experiment: as above
U2OS [9] = experiment: as above
Caco-2 [10] = experiment: as above
Calu-3 [11] = experiment: cell viability relative to DMSO; higher = less toxic
Vero E6 [12] = experiment: as above
HepG2 [13] = experiment: as above
U2OS [14] = experiment: as above
Caco-2 [15] = experiment: as above

SMILES | relative viability EC50 (Calu-3 [1]) | relative viability EC50 (Vero E6 [2]) | relative viability EC50 (HepG2 [3]) | relative viability EC50 (U2OS [4]) | relative viability EC50 (Caco-2 [5]) | drug sensitivity score (Calu-3 [6]) | drug sensitivity score (Vero E6 [7]) | drug sensitivity score (HepG2 [8]) | drug sensitivity score (U2OS [9]) | drug sensitivity score (Caco-2 [10]) | cell viability (Calu-3 [11]; 1 nM) | cell viability (Calu-3 [11]; 10 nM) | cell viability (Calu-3 [11]; 100 nM) | cell viability (Calu-3 [11]; 1000 nM) | cell viability (Calu-3 [11]; 10000 nM) | cell viability (Vero E6 [12]; 1 nM) | cell viability (Vero E6 [12]; 10 nM) | cell viability (Vero E6 [12]; 100 nM) | cell viability (Vero E6 [12]; 1000 nM) | cell viability (Vero E6 [12]; 10000 nM) | cell viability (HepG2 [13]; 1 nM) | cell viability (HepG2 [13]; 10 nM) | cell viability (HepG2 [13]; 100 nM) | cell viability (HepG2 [13]; 1000 nM) | cell viability (HepG2 [13]; 10000 nM) | cell viability (U2OS [14]; 1 nM) | cell viability (U2OS [14]; 10 nM) | cell viability (U2OS [14]; 100 nM) | cell viability (U2OS [14]; 1000 nM) | cell viability (U2OS [14]; 10000 nM) | cell viability (Caco-2 [15]; 1 nM) | cell viability (Caco-2 [15]; 10 nM) | cell viability (Caco-2 [15]; 100 nM) | cell viability (Caco-2 [15]; 1000 nM) | cell viability (Caco-2 [15]; 10000 nM)
N[C@@H](Cc1ccc(O)cc1)C(=O)O [plovamer-acetate] | > 10 µM | > 10 µM | > 10 µM | > 10 µM | > 10 µM | 0 | 0 | 0 | 0 | 4.2 | 97.9% | 98.5% | 105% | 104% | 102% | 106% | 102% | 96.3% | 104% | 95.5% | 87.2% | 94.4% | 93% | 90.1% | 80.1% | 99.1% | 94.8% | 102% | 93.3% | 97.6% | 119% | 83.9% | 84.4% | 90.7% | 92.1%
COc1ccc(N2CCOCC2)c2sc(NC(=O)N3CCC(C)(O)CC3)nc12 [tozadenant] | > 10 µM | > 10 µM | > 10 µM | > 10 µM | > 10 µM | 0 | 0 | 0 | 0 | 0 | 87.7% | 94.1% | 87.3% | 101% | 97.4% | 94.5% | 106% | 90.6% | 94.3% | 101% | 85.8% | 99.4% | 109% | 99.7% | 98.2% | 103% | 95.7% | 102% | 98.9% | 103% | 90.8% | 95.5% | 110% | 96.1% | 98%
Oc1cc(O)cc(/C=C/c2ccc(O)c(O)c2)c1 [piceatannol] | > 10 µM | > 10 µM | > 10 µM | > 10 µM | > 10 µM | 0 | 0 | 0 | 0 | 0.5 | 95.3% | 93.5% | 90.4% | 99.9% | 88.9% | 103% | 94.1% | 94.8% | 92.1% | 101% | 98.8% | 87.3% | 105% | 92.7% | 97.7% | 97.5% | 98.2% | 94.2% | 100% | 96.1% | 90.2% | 93.7% | 101% | 96.1% | 86%
Nc1ccccc1NC(=O)c1ccc(CNc2nccc(-c3cccnc3)n2)cc1 [mocetinostat] | 0.405 µM | 0.567 µM | 0.756 µM | 1.26 µM | 1.12 µM | 13 | 13.9 | 12.5 | 10.4 | 9.2 | 102% | 89.6% | 86.8% | 40% | 17.7% | 95.4% | 94.7% | 78% | 43.4% | -0.1% | 102% | 100% | 88.9% | 44.2% | 1.1% | 98.4% | 97.2% | 100% | 64.2% | 0.3% | 95.6% | 100% | 102% | 64.4% | 17.7%
CCN(C(=O)c1c(O)c2c(Cl)cccc2n(C)c1=O)c1ccccc1 [laquinimod] | > 10 µM | > 10 µM | > 10 µM | > 10 µM | > 10 µM | 0 | 0 | 0 | 0 | 0 | 110% | 87.9% | 91.5% | 108% | 102% | 99.8% | 99.9% | 92.8% | 92.5% | 91.4% | 102% | 98.6% | 103% | 93.4% | 92.8% | 96.9% | 98.9% | 99.2% | 97.6% | 96.9% | 90.3% | 88.5% | 98.2% | 106% | 91.5%
O=S(=O)(O)c1ccc(-c2c3nc(c(-c4ccc(S(=O)(=O)O)cc4)c4ccc([nH]4)c(-c4ccc(S(=O)(=O)O)cc4)c4nc(c(-c5ccc(S(=O)(=O)O)cc5)c5ccc2[nH]5)C=C4)C=C3)cc1 [TPPS4] | > 10 µM | > 10 µM | > 10 µM | > 10 µM | > 10 µM | 0 | 0.7 | 0.3 | 0 | 0 | 94.2% | 93.1% | 109% | 99% | 90.1% | 110% | 102% | 93.6% | 95.7% | 81.9% | 100% | 102% | 104% | 107% | 80.5% | 101% | 94.2% | 105% | 105% | 91.6% | 107% | 87.2% | 91.4% | 96.4% | 101%
CC(=O)NCCNc1cc(Cl)nn2c(-c3cccc(S(=O)(=O)N(C)C)c3)c(C)nc12 [MI-14] | > 10 µM | > 10 µM | > 10 µM | > 10 µM | > 10 µM | 0.8 | 0 | 4.4 | 0 | 0.9 | 99.1% | 96.2% | 98.2% | 102% | 75.8% | 95.6% | 98% | 96.5% | 93.2% | 93.5% | 102% | 89.4% | 87.4% | 77.2% | 78.8% | 98.8% | 101% | 99.6% | 98.2% | 89.5% | 99.1% | 92.2% | 99.5% | 93.1% | 83.3%
Cn1cc(-c2ccc(F)c(C(F)(F)F)c2)nc1C1CCN(c2ncnc3[nH]ncc23)CC1 | > 10 µM | > 10 µM | > 10 µM | > 10 µM | > 10 µM | 0.4 | 0 | 0 | 0.7 | 0.2 | 95.6% | 90.2% | 96.4% | 94.1% | 82.1% | 98.4% | 106% | 96.7% | 95.4% | 92% | 106% | 97.8% | 106% | 91.7% | 94.7% | 96.9% | 94.5% | 90.3% | 90.9% | 84.6% | 97% | 96.9% | 102% | 102% | 84.5%
CC(=O)O[C@H]1Cc2ccccc2N(C(N)=O)c2ccccc21 [eslicarbazepine-acetate] | > 10 µM | > 10 µM | > 10 µM | > 10 µM | > 10 µM | 0 | 0 | 0 | 0 | 0 | 98.9% | 98.4% | 108% | 102% | 111% | 96.9% | 99.7% | 96.3% | 98.9% | 98.2% | 90.4% | 85.9% | 95.9% | 93.8% | 101% | 97.5% | 93.6% | 95.2% | 96.7% | 101% | 104% | 99.9% | 91.3% | 95.5% | 89%
Brc1c(NC2=NCCN2)ccc2nccnc12 [brimonidine] | > 10 µM | > 10 µM | > 10 µM | > 10 µM | > 10 µM | 0 | 0 | 0 | 0 | 0 | 103% | 98.1% | 88.1% | 97.2% | 103% | 99% | 102% | 97.5% | 100% | 102% | 98.1% | 97.6% | 96.7% | 107% | 105% | 100% | 105% | 99.6% | 96.6% | 106% | 107% | 97.2% | 108% | 90.7% | 103%
O=S(=O)(O)NC1CCCCC1 [cyclamic-acid] | > 10 µM | > 10 µM | > 10 µM | > 10 µM | > 10 µM | 0 | 0 | 0 | 0 | 0 | 101% | 99.7% | 90% | 101% | 97.8% | 108% | 99.8% | 101% | 99.1% | 106% | 112% | 99.5% | 97.8% | 98.8% | 105% | 98.1% | 100% | 96.8% | 101% | 96.3% | 107% | 106% | 85.7% | 98.4% | 93.5%
CCCCC/C=C\C/C=C\C/C=C\C/C=C\CCCC(=O)Nc1ccc(O)cc1 [AM-404] | > 10 µM | > 10 µM | > 10 µM | > 10 µM | > 10 µM | 0 | 0 | 0 | 0 | 0 | 104% | 93.1% | 96.8% | 99.1% | 102% | 105% | 106% | 92.9% | 102% | 96.5% | 110% | 104% | 93.9% | 107% | 87.6% | 96.9% | 95.2% | 100% | 93.8% | 96.3% | 95.3% | 98.2% | 103% | 100% | 95%
C[C@H](Cc1ccc2c(c1)OC(C(=O)O)(C(=O)O)O2)NC[C@H](O)c1cccc(Cl)c1 | > 10 µM | > 10 µM | > 10 µM | > 10 µM | > 10 µM | 0 | 0 | 0 | 0 | 0 | 103% | 101% | 90.6% | 92.9% | 91.1% | 97.5% | 97.2% | 93.1% | 96.4% | 97.9% | 97.9% | 101% | 103% | 101% | 97.4% | 104% | 101% | 99.1% | 99% | 102% | 103% | 101% | 104% | 97.3% | 111%
COC(=O)C1=C(C)NC(C)=C([N+](=O)[O-])[C@@H]1c1ccccc1C(F)(F)F (racemic) [BAY-K-8644-(+/-)] | > 10 µM | > 10 µM | > 10 µM | > 10 µM | > 10 µM | 0 | 0 | 0 | 0 | 0 | 101 ± 8.4% | 99.4 ± 2.1% | 99.9 ± 7.6% | 100 ± 6.7% | 98.5 ± 3.2% | 95 ± 1.1% | 97.9 ± 1.4% | 99.4 ± 4.5% | 100 ± 2% | 101 ± 5.7% | 99.8 ± 1.3% | 93.6 ± 3.2% | 95.2 ± 1.8% | 104 ± 10% | 94.25 ± 0.21% | 95.9 ± 0.28% | 95.9 ± 4.4% | 98.8 ± 4.9% | 97.9 ± 4.7% | 96.2 ± 0.85% | 89.8 ± 1.6% | 94.5 ± 2.3% | 94.3 ± 1.8% | 106 ± 4.2% | 93.4 ± 3.4%
